Experimental data from patent US6753171B2, “Site-specific cell perforation technique” (Center for Advanced Science and Technology Incubation, Ltd., priority 1998, dated 2004).

Legend:
nerve cell line PC12 = assay: Measurement of membrane resistance and membrane potential following light exposure (patch clamp); assay type: cell-based; conditions: for change in cell membrane resistance/membrane potential following light exposure: 363 nm argon ion laser
Protocol: Since there is a need to monitor cellular level micro membrane damages, including the recovering process within seconds to a few minutes, the intermembrane potential of the cell membrane, or the ionic current passing through the cell membrane was measured using the patch clamp method, which is an electrophysiology experiment technique.
The photosensitizer BAT was dispersed in HEPES (25 mM,pH7.4) buffer.
Cells were incubated at room temperature within an electrophysiology experimental culture medium.
2H2O, 2.4 mM; MgSO4. 7H2O, 1.3 mM; glucose 10 mM, in which the pH was adjusted to […] by finally adding NaOH. To prevent any influence due to evaporation, the electrophysiology experiment culture medium was changed every 40 min at the latest by a pipette.
BAT was added to a final concentration of 49 μM. Exposed light quantity was in three stages, being 0.47 J/cm^2, 0.94 J/cm^2, and 1.57 J/cm^2.
The solution within the patch electrodes had the composition of KCl 132 mM, NaCl, 8 mM, MgCl2, 2 mM, HEPES 30 mM, Na2ATP 4 mM, GTP 0.3 mM, and EGTA 0.5 mM, in which the pH was adjusted to 7.3 by finally adding NaOH.
As the excitation power source, 50 mW, 363 nm argon ion laser standardly equipped within a confocal laser scanning microscope (CLSM) MRC-1000 UV (BIO-RAD laboratories) was used. 1/16th (¼^th to the direction of the X axis and Y axis, 117 μm×170 μm) of the full screen of the microscope is scanned with the above-described laser beams. Adjustments were done so that the whole image of the patched target cell came into this area. 50 mW laser beam is a 100% output. According to the scanning speed, the exposed duration was selected from 1/16, ¼, 1/32 sec. The light reduction by the lens was also utilized. When the zoom function was used, the light is scanned on a concentrated area smaller than the normal area, and therefore, the light quantity per unit area increases in proportion to the square of the zoom magnification. Since the excitation light has to pass through the plastic of the collagen-coated dish before reaching the cells, there is a necessity to consider light reduction.
Also, in the excitation light exposure, a TTL signal coupled with an electrophysiological recording is suitably transmitted to the excitation light source, to synchronize the exposure and electrical measurement.
At the start of the electrophysiological experiment, the cell membrane potential was maintained between −80 to −60 mV. The resistance of the patch electrode was 3˜4 MΩ, and the above described solution was filled into electrodes, and used.
As for the amplifier for cell membrane potential measurement, Axopatch 1-D (Axon Instruments) was used. The membrane resistance was calculated by the change in membrane potential when a 1 Hz rectangular hyperpolarizing current was passed through for 350 mili sec. […] The measured potential/current value was analyzed by Axoscope ver. 1.1 software (Axon Instruments).
Membrane resistance reflects membrane permeation inhibiting capacity, and membrane potential reflects the active ion transport capacity due to the functions of various intermembrane ion transportation systems and ion permeation inhibiting capacity.
A microinjector was connected to a micro glass pipette held by a micromanipulator, and BAT dispersed solution (BAT concentration was 2 mM, aqueous solvent) was filled into this micro glass pipette. The tip of this glass pipette was connected to a patch electrode and setup within 200 μm proximity of the cells in which the membrane potential/membrane resistance was to be measured. BAT dispersed solution was released by compressing the micro glass pipette to attach BAT onto the cell membrane of target cells.

PC12 cells [1] = assay: Microinjection treatment using site-specific membrane disruption: success rate of Lucifer Yellow injection; assay type: cell-based; conditions: BAT 100 μM in injection solution, capillary approach speed 7 μm s^-1, n=30
Protocol: To determine the success or failure of microinjection treatment, Lucifer Yellow CH(LY), a water-soluble fluorescent dye, was added to the injection solution. After injection treatment, if a yellow fluorescence of LY origin was observed within the cell by a fluorescent microscope, then, the injection treatment was judged to have been successful. The variation of the success rate of cell injection was evaluated by the presence or absence of the photosensitizer BAT within the injection solution, and the presence or absence of a BAT excitation light exposure.
Normally, to make microinjection successful, a glass capillary having an opening with a diameter of a few hundred nanometers should be contacted with cells at high speed, to instantly penetrate/perforate the cell membrane or the nucleus membrane physically. […] The micromanipulator was attached to a fluorescence microscope (OLYMPUS OPTICAL, IX70 fluorescence microscope spec). Light of a 100 W […], which is the epi-illumination fluorescence light source equipped in the microscope, was treated by transmitting through an ultraviolet ray excitation filter set (OLYMPUS OPTICAL, U-MWU mirror unit), and the resulting ultraviolet light was used as the excitation source of the photosensitizer. […]

PC12 cells [2] = assay: Cell survival rate after injection treatment (LY maintaining rate); assay type: cell-based
Protocol: The survival rate of cells to which microinjection treatment by a physical shear force was given, and that for photosensitizing microinjection treated cells were compared.
LY was injected into cells by microinjection. In dead cells in which the cell membrane had collapsed, LY rapidly diffuses, and staining is lost (Cell, 14, 741-759 (1978)). Therefore, LY maintaining rate of injection treated cells was used as an indicator of cell survival rate, and the survival rate after 3 to 6 days following injection treatment was compared.

[3] = Solubility of BAT in aqueous solution; assay type: physicochemical; conditions: within acidic aqueous solutions (bivalent positive charge)
Excerpt: The thiophene oligomer having amino-methyl residue at the terminal, has a high solubility compared with other derivatives of the same type because of this amino-methyl residue. Solubility changes with the dissociation state of this amino-methyl residue. […] In aqueous solutions near a pH region suitable for the body (around 7.4), it has a feature of having both positively-charged monovalent BAT maintaining a high solubility, and non-charged BAT that agglutinates easily into a colloid state. Under this pH condition, by perfusing cells within a BAT-dispersed solution, this molecule can easily attach onto the cell surface. The hydrophilicity of BAT molecule is a novel feature that is not seen in either modified thiophene oligomers starting with α-terthienyl, or in other molecules designed as conductive high molecular monomers.

NCc1ccc(-c2ccc(-c3ccc(CN)s3)s2)s1 [BAT, 5′5″-bis(aminomethyl)-2,2′:5′,2″-terthiophene]
change in cell membrane resistance/membrane potential following light exposure (nerve cell line PC12; BAT 49 μM, light quantity 0.47 J/cm^2 (A)): a big change was not seen | change in cell membrane resistance/membrane potential following light exposure (nerve cell line PC12; BAT 49 μM, light quantity 0.94 J/cm^2 (B)): a decrease in cell membrane resistance/depolarization of the membrane potential occurred | change in cell membrane resistance/membrane potential following light exposure (nerve cell line PC12; BAT 49 μM, light quantity 1.57 J/cm^2 (C)): both disappeared | time to disappearance of cell membrane resistance/membrane potential (nerve cell line PC12; BAT 49 μM, light quantity 1.57 J/cm^2 (C), after a few second lag period): 8 s | cell membrane potential after laser exposure (nerve cell line PC12; BAT 2 mM dispersed solution sprayed onto target cells by micro glass pipette (Example 4)): depolarization of the cell membrane potential was observed | change in membrane resistance when only the axon of the cell was exposed to laser beams (nerve cell line PC12; only the axon exposed): a similar change in membrane resistance was observed | success rate of the injection (PC12 cells [1]; 2 min ultraviolet exposure): 80% | success rate of the injection (PC12 cells [1]; no light exposure): 13% | cell survival rate (LY retention rate) (PC12 cells [2]; BAT+LY without UV, 3rd day following treatment): 30% | cell survival rate (LY retention rate) (PC12 cells [2]; BAT+LY+UV photosensitizing injection, three to six days following injection treatment): 90% | solubility [3]: dissolves easily
